Measured values taken from patent US8758816B2, “Compositions comprising azelastine and methods of use thereof” (priority 2004, dated 2014).

Tested on: patients with seasonal allergic rhinitis (SAR)
Test: MP 428 two-week randomized double-blind study: Total Nasal Symptom Score (TNSS), change from baseline
Type: in vivo, human
Design: key to Change from Baseline in AM TNSS, Mean / Change from Baseline in AM TNSS, LS Mean / Change from Baseline in AM TNSS, Median: TNSS sum of 4 symptoms each 0-3 (0=none, 3=severe); change from baseline
Details: for AUC of Change from Baseline in TNSS (AM and PM Combined), Mean / AUC of Change from Baseline in TNSS (AM and PM Combined), Median / AUC of Change from Baseline in TNSS (AM and PM Combined), LS Mean: Day 1 to Day 14; for AUC of Change from Baseline in TNSS (AM and PM Combined), LS Mean: ANCOVA
Experimental: A two-week, randomized, double-blind study, which evaluated the effects of the co-administration of ASTELIN® (azelastine hydrochloride (HCl)) and FLONASE® (fluticasone propionate) compared to either product alone in patients with seasonal allergic rhinitis (SAR) was conducted during the 2006 Texas mountain cedar season. After a 5-day placebo lead-in period, 151 patients with moderate-to-severe allergic rhinitis symptoms were randomized to either: (1) (49 total patients) ASTELIN® (azelastine hydrochloride (HCl)) plus placebo saline nasal spray 2 sprays per nostril, 15 minutes apart, twice daily (AM & PM); (2) (50 total patients) FLONASE® (fluticasone propionate) plus placebo saline nasal spray, 2 sprays per nostril, 15 minutes apart, once daily (AM) and two sessions of placebo saline nasal spray, 2 sprays per nostril, 15 minutes apart (PM); or (3) (52 total patients) the co-administration of ASTELIN® (azelastine hydrochloride (HCl)) 2 sprays per nostril plus FLONASE® (fluticasone propionate) 2 sprays per nostril (AM), 15 minutes apart, and ASTELIN® (azelastine hydrochloride (HCl)) 2 sprays per nostril plus placebo saline nasal spray, 15 minutes apart, (PM) for a 2-week double-blind treatment period.
The primary efficacy variable was the change from baseline in the Total Nasal Symptom Score (TNSS), which comprised sneezing, itchy nose, runny nose, and nasal congestion (individual symptoms scores were assigned a value between 0 and 3, where 0=no symptoms and 3=severe symptoms). This study was not statistically designed to assess the differences between ASTELIN® and FLONASE®.

[1] = Day 12, Per-Protocol Population
[2] = Day 13, Intent-to-Treat Population
[3] = Day 13, Per-Protocol Population
[4] = Day 14, Intent-to-Treat Population
[5] = Day 14, Per-Protocol Population
[6] = Overall (Day 2 to Day 14), Intent-to-Treat Population
[7] = Overall (Day 2 to Day 14), Per-Protocol Population

CCC(=O)O[C@]1(C(=O)SCF)[C@H](C)C[C@H]2[C@@H]3C[C@H](F)C4=CC(=O)C=C[C@]4(C)[C@@]3(F)[C@@H](O)C[C@@]21C [Fluticasone, fluticasone propionate]
Percent Change from Baseline in PM TNSS, Median (Day 12, Intent-to-Treat Population): −31.82% | Change from Baseline in AM and PM Combined TNSS, LS Mean (Day 12, Intent-to-Treat Population, ANCOVA model): −6.12 | Change from Baseline in AM and PM Combined TNSS, LS Mean [1]: −6.16 | Change from Baseline in AM and PM Combined TNSS, Mean [1]: −6.20 | Change from Baseline in AM and PM Combined TNSS, Median [1]: −5.17 | Percent Change from Baseline in AM and PM Combined TNSS, LS Mean [1]: −31.45% | Percent Change from Baseline in AM and PM Combined TNSS, Mean [1]: −31.50% | Percent Change from Baseline in AM and PM Combined TNSS, Median [1]: −27.78% | Change from Baseline in AM TNSS, LS Mean [2]: −3.38 | Change from Baseline in AM TNSS, Mean [2]: −3.32 | Change from Baseline in AM TNSS, Median [2]: −3.00 | Change from Baseline in AM and PM Combined TNSS, Mean [2]: −6.83 | Change from Baseline in AM and PM Combined TNSS, Median [2]: −6.20 | Change from Baseline in PM TNSS, LS Mean [2]: −3.57 | Change from Baseline in PM TNSS, Mean [2]: −3.51 | Change from Baseline in PM TNSS, Median [2]: −3.00 | Percent Change from Baseline in AM TNSS, LS Mean [2]: −34.62% | Percent Change from Baseline in AM TNSS, Mean [2]: −34.03% | Percent Change from Baseline in AM TNSS, Median [2]: −28.36% | Percent Change from Baseline in AM and PM Combined TNSS, LS Mean [2]: −35.63% | Percent Change from Baseline in AM and PM Combined TNSS, Mean [2]: −34.97% | Percent Change from Baseline in AM and PM Combined TNSS, Median [2]: −30.43% | Percent Change from Baseline in PM TNSS, LS Mean [2]: −36.56% | Percent Change from Baseline in PM TNSS, Mean [2]: −35.75% | Percent Change from Baseline in PM TNSS, Median [2]: −33.33% | Change from Baseline in AM and PM Combined TNSS, LS Mean (Day 13, Intent-to-Treat Population, ANCOVA model): −6.95 | Change from Baseline in AM and PM Combined TNSS, LS Mean [3]: −7.03 | Change from Baseline in AM and PM Combined TNSS, Mean [3]: −7.01 | Change from Baseline in AM and PM Combined TNSS, Median [3]: −6.50 | Percent Change from Baseline in AM and PM Combined TNSS, LS Mean [3]: −35.99% | Percent Change from Baseline in AM and PM Combined TNSS, Mean [3]: −35.73% | Percent Change from Baseline in AM and PM Combined TNSS, Median [3]: −30.43% | Change from Baseline in AM TNSS, LS Mean [4]: −3.33 | Change from Baseline in AM TNSS, Mean [4]: −3.28 | Change from Baseline in AM TNSS, Median [4]: −3.00 | Change from Baseline in AM and PM Combined TNSS, Mean [4]: −6.91 | Change from Baseline in AM and PM Combined TNSS, Median [4]: −5.85 | Change from Baseline in PM TNSS, LS Mean [4]: −3.70 | Change from Baseline in PM TNSS, Mean [4]: −3.63 | Change from Baseline in PM TNSS, Median [4]: −3.00 | Percent Change from Baseline in AM TNSS, LS Mean [4]: −33.54% | Percent Change from Baseline in AM TNSS, Mean [4]: −33.12% | Percent Change from Baseline in AM TNSS, Median [4]: −31.03% | Percent Change from Baseline in AM and PM Combined TNSS, LS Mean [4]: −35.62% | Percent Change from Baseline in AM and PM Combined TNSS, Mean [4]: −35.00% | Percent Change from Baseline in AM and PM Combined TNSS, Median [4]: −28.71% | Percent Change from Baseline in PM TNSS, LS Mean [4]: −37.70% | Percent Change from Baseline in PM TNSS, Mean [4]: −36.79% | Percent Change from Baseline in PM TNSS, Median [4]: −33.33% | Change from Baseline in AM and PM Combined TNSS, LS Mean (Day 14, Intent-to-Treat Population, ANCOVA model): −7.02 | Change from Baseline in AM and PM Combined TNSS, LS Mean [5]: −7.15 | Change from Baseline in AM and PM Combined TNSS, Mean [5]: −7.14 | Change from Baseline in AM and PM Combined TNSS, Median [5]: −6.00 | Percent Change from Baseline in AM and PM Combined TNSS, LS Mean [5]: −36.26% | Percent Change from Baseline in AM and PM Combined TNSS, Mean [5]: −36.03% | Percent Change from Baseline in AM and PM Combined TNSS, Median [5]: −34.31% | AUC of Change from Baseline in TNSS (AM and PM Combined), Mean (Intent-to-Treat Population): −64.53 | AUC of Change from Baseline in TNSS (AM and PM Combined), Median (Intent-to-Treat Population): −51.13 | AUC of Change from Baseline in TNSS (AM and PM Combined), LS Mean (Intent-to-Treat Population): −65.00 | Change from Baseline in AM TNSS, LS Mean [6]: −2.55 | Change from Baseline in AM TNSS, Mean [6]: −2.57 | Change from Baseline in AM TNSS, Median [6]: −2.14 | Change from Baseline in AM and PM Combined TNSS, Mean [6]: −5.06 | Change from Baseline in AM and PM Combined TNSS, Median [6]: −3.91 | Change from Baseline in PM TNSS, LS Mean [6]: −2.71 | Change from Baseline in PM TNSS, Mean [6]: −2.43 | Change from Baseline in PM TNSS, Median [6]: −1.86 | Percent Change from Baseline in AM TNSS, LS Mean [6]: −26.39% | Percent Change from Baseline in AM TNSS, Mean [6]: −26.49% | Percent Change from Baseline in AM TNSS, Median [6]: −23.89% | Percent Change from Baseline in AM and PM Combined TNSS, LS Mean [6]: −27.13% | Percent Change from Baseline in AM and PM Combined TNSS, Mean [6]: −26.12% | Percent Change from Baseline in AM and PM Combined TNSS, Median [6]: −21.93% | Percent Change from Baseline in PM TNSS, LS Mean [6]: −27.75% | Percent Change from Baseline in PM TNSS, Mean [6]: −24.98% | Percent Change from Baseline in PM TNSS, Median [6]: −20.34% | Change from Baseline in AM and PM Combined TNSS, LS Mean (Overall (Day 2 to Day 14), Intent-to-Treat Population, ANCOVA model): −5.24 | Change from Baseline in AM and PM Combined TNSS, LS Mean [7]: −5.24 | Change from Baseline in AM and PM Combined TNSS, Mean [7]: −5.14 | Change from Baseline in AM and PM Combined TNSS, Median [7]: −3.91 | Percent Change from Baseline in AM and PM Combined TNSS, LS Mean [7]: −27.12% | Percent Change from Baseline in AM and PM Combined TNSS, Mean [7]: −26.46% | Percent Change from Baseline in AM and PM Combined TNSS, Median [7]: −21.93% | AUC of Change from Baseline in TNSS (AM and PM Combined), Mean (Per-Protocol Population): −65.66 | AUC of Change from Baseline in TNSS (AM and PM Combined), Median (Per-Protocol Population): −51.13 | AUC of Change from Baseline in TNSS (AM and PM Combined), LS Mean (Per-Protocol Population): −65.38
